Reference: patent US7632972B2, “Compounds and methods for treatment of cancer and modulation of programmed cell death for melanoma and other cancer cells” (The Board of Trustees of the University of Illionis, priority 2003, dated 2009)
“Also recorded” adds a separate entry of the source.

What was measured:
cell cycle = test: Cell cycle analysis, DNA content by flow cytometry of propidium iodide stained cells; format: cell-based; conditions: position of cell cycle arrest
Experimental: Cell cycle analysis and NCl screen. The data in FIG. 21 and Table 11 show potential structure-activity trends. Several amides derived from the triphenylacetic acid (TPA) and triphenylpropionic acid (TPP) building blocks induced a high degree of cell death in this assay. Experiments were conducted to determine the position on the cell cycle at which these compounds arrest cell growth. This is typically determined by assessing the DNA content as measured flow cytometry analysis of cells stained by propidium iodide. Flow cytometry data is presented in FIG. 22, along with control data. […] One of the active apoptotic inducers identified from this combinatorial library that was not derived from the TPA or TPP building blocks (x) also arrests cell growth in the G2/M phase as indicated by the data in FIG. 22B. However, compounds containing the triphenylacetic acid and triphenylpropionic acid building blocks all arrest cell growth in the G1 phase (FIG. 22C and FIG. 22D). Here compounds x and y correspond to compounds Z2 and Z3.

U-937 cells [1] = test: High-throughput cell death assay on library members (MTS/PMS); format: cell-based, human; conditions: library members at 100 μM, 24 hours
Experimental: A three-tiered system was devised to identify compounds that selectively induce apoptosis in cancer cells. First, all compounds were screened at 100 μM in a high-throughput manner for their ability to induce death in two cancer cell lines, HL-60 (leukemia) and U-937 (lymphoma).
Test compounds were transferred into the wells using a 96-pin transfer apparatus (V & P Scientific, San Diego Calif.) that transfers 0.2 μL of compound. The compounds were made up as 50 mM stock solutions in 100% EtOH, so one transfer gave a final concentration of 100 μM. Controls were performed in which only EtOH (containing no compound) was pin-transferred into wells containing cells. The cells were incubated with the compounds for 24 hours, and then cell death was quantitated.

in vitro = format: cell-based, human; conditions: human
[2] = test system: caspase-3 like protease activity in U-937 cells; test: Caspase-3 activity assay (Ac-DEVD-pNA cleavage by cell lysates); format: cell-based, human; conditions: 100 μM
Experimental: Caspase-3 Activity Assay: The amount of caspase-3 like protease activity was determined by the amount of Ac-DEVD-pNA (N-acetyl-Asp-Glu-Val-Asp p-nitroanilide) cleaved per minute by cell lysates. To accomplish this, 100 μM of 13-D was added to cell culture flasks containing 50 mL of 10×10^6 U-937 cells/mL at 72, 48, 36, 24, 12 and 0 hours before harvesting. Cells were harvested by centrifugation, counted and diluted with RPMI 1640 media to a concentration of 4×10^6 cells/mL. 100 μL of the diluted cells were added to the wells of a 96-well plate in quadruplicate. The plate was then spun at 1000×g for 5 minutes to pellet the cells. […] The slope of the linear portion for each compound was then determined and any cleavage of the substrate in the control wells was subtracted out. The amount of Ac-DEVD-pNA cleaved in pmol/min was then calculated and plotted.
Apoptotic assays. […] Thus early stage (mitochondrial membrane depolarization), middle stage (caspase-3 like activation, PARP-1 cleavage) and late stage (chromatin condensation, phosphatidylserine exposure, membrane blebbing) biochemical events were monitored. […] Several dyes, including JC-9, have been developed that provide a sensitive readout on this process. […] The caspase-3-like activity of the cells can be monitored with peptidic substrates. […]

U-937 cells [3] = test: Analysis of mitochondria depolarization by flow cytometry (JC-9 dye); format: cell-based, human
Experimental: Further experiments assessed whether the observed death from 12-D, 13-D, and 15-D was due to apoptosis or necrosis.
Analysis of Mitochondria Depolarization by Flow Cytometry: The depolarization of the mitochondrial membrane was measured by the fluorescence emitted by the JC-9 dye (Molecular Probes, Eugene Oreg.). 100 μM of 13-D or 10 μM etoposide in 1 μL of EtOH were added to cell culture flasks containing 50 mL of 10×10^6 U-937 cells/mL. […] 10 μg of the JC-9 dye was added to 1×10^6 cells in 1 mL and incubated at room temperature for 10 min. Cells were washed twice with PBS and resuspended in a final volume of 500 μL PBS. The fluorescence intensity of each cell was determined by flow cytometry at 525 nm (channel 1 green) and 675 nm (channel 4 red). 50,000 cells were analyzed in each experiment. The data was then analyzed using Summit Software (Cytomation, Fort Collins Colo.) and the number of cells within the upper left region, viable cells, was determined.
Apoptotic assays. To determine whether the observed death was due to apoptosis or necrosis, several apoptotic hallmarks were examined. Thus early stage (mitochondrial membrane depolarization), middle stage (caspase-3 like activation, PARP-1 cleavage) and late stage (chromatin condensation, phosphatidylserine exposure, membrane blebbing) biochemical events were monitored. The depolarization of mitochondrial membranes facilitates the release of pro-apoptotic proteins such as cytochrome c and AIF (apoptosis inducing factor) from the mitochondria into the cytosol. Several dyes, including JC-9, have been developed that provide a sensitive readout on this process. […] The release of pro-apoptotic stimuli from the mitochondria initiates a cascade of events that ultimately results in the activation of the “executioner” caspases, typically caspase-3 and caspase-7. The caspase-3-like activity of the cells can be monitored with peptidic substrates. […] PARP-1 cleavage. A final event in apoptosis is the exposure of phosphatidylserine on the outer leaflet of the cell membrane; this event allows for recognition of apoptotic cells by phagocytes, ultimately leading to the engulfment of the apoptotic cell and the recycling of the various cellular components.

T cells = format: cell-based, mouse
Text: Erythrocytes were selectively lysed and the T cells were highly enriched by using a mouse erythrocyte lysing kit and a mouse T cell enrichment column (R & D Systems, Minneapolis Minn.). FITC labeled anti-TCR antibodies were used to determine the purity of T cells in pre- and post-column samples. The T cells were enriched from approximately 35% to 90% of the total cell population (see FIG. 6A, 6B below). […] These cells were either stimulated to grow (by addition of ConA to a concentration of 2.5 μg/mL) or left untreated. […] After the 72 hours of incubation, 200 μL of cells were diluted in 300 μL PBS. Propidium iodide was then added to a concentration of 1 μg/mL. Cells were then incubated at room temperature for 5 minutes and analyzed by flow cytometry. The fluorescene intensity of each cell was determined at 620 nm (channel 3) and at least 50,000 cells were analyzed for each experiment (FIG. 7A, 7B, below). The data was then analyzed using Summit Software (Cytomation, Fort Collins Colo.) and the number of viable cells was determined. Non-concanavalin A stimulated T cells were also treated with 13-D, and viable cells in these samples were determined by PI staining (as above).
FIG. 7A illustrates flow cytometry data from Concanavalin A stimulated T cells; region R1 indicates 86.4% viable cells. […]

U-937 cells [4] = test: Microscopy of treated cells; format: cell-based, human; conditions: 100 μM
Experimental: Compound 13-D was added to make a final concentration of 100 μM. Pictures of the cells were taken at various times using a Carl Zeiss confocal microscope (Carl Zeiss, Thornwood N.Y.). Picture at 100×; FIG. 9B. Picture at 100×; FIG. 10A. Picture at 400×; FIG. 10B. Picture at 400×; FIG. 10C. Picture at 400×; and FIG. 11. Picture at 200×.

splenocytes = test: Splenocyte toxicity assay (concanavalin A stimulated, MTS/PMS); conditions: 72 h
Experimental: For this experiment, the spleen from a euthanized mouse was harvested, and the splenocytes isolated.
Splenocyte Toxicity Assay: Splenocytes were isolated from the spleen of a 7-month old male C57Black/6 mouse and suspended in 1 mL RPMI 1640+10% FBS+2.5 μg/mL concanavalin A. These cells were counted and diluted so that 2.5×10^5 cells were seeded in to each well containing a total of 200 μL of media. […] 1 μL of EtOH was added to separate control wells. After 72 hours of incubation, 20 μL of the MTS/PMS CellTiter 96 Cell Proliferation Assay reagent (Promega, Madison Wis.) was added to each well. The plates were incubated at 37° C. for approximately two hours until the colored product formed and the absorbance was then measured at 490 nm in a Spectra Max Plus 384 plate reader (Molecular Devices, Sunnyvale Calif.).

Row | SMILES | cell cycle arrest (cell cycle) | Induction of death in U-937 cells (percentages of cell death) (U-937 cells [1]) | IC50 at 72 h (in vitro) | caspase-3 activity [2] | observed death due to apoptosis or necrosis (U-937 cells [3]) | cell population in which apoptosis is induced (JC-9 staining) (U-937 cells [3]; 100 μM, 72 h) | viable cells, treated versus non-treated control cells (T cells) | microscopy, evidence of apoptosis (U-937 cells [4]) | toxicity towards actively dividing splenocytes (splenocytes; 500 μM) | IC50 (splenocytes; Mus musculus, Splenocyte, read-out: IC50 for non-cancerous splenocytes)
1 | CC(=O)O[C@H]1C(=O)[C@@]2(C)[C@H]([C@H](OC(=O)c3ccccc3)[C@]3(O)C[C@H](OC(=O)[C@H](O)[C@@H](NC(=O)c4ccccc4)c4ccccc4)C(C)=C1C3(C)C)[C@]1(OC(C)=O)CO[C@@H]1C[C@@H]2O [Taxol] | mitotic (M) phase arrest | – | – | – | – | – | – | – | – | –
2 | COc1cc(/C=C/C(=O)NC[C@@H](O)c2ccc(O)cc2)ccc1O [Compound 13-D, N-[2-(S)-Hydroxy-2-(4-hydroxy-phenyl)-ethyl]-3-(4-hydroxy-3-methoxy-phenyl)-acrylamide] | – | 87% | 44 µM | strong induction of caspase-3 activity | induced apoptosis | over 70% | no difference was observed | membrane blebbing and cell shrinkage | virtually no death; also recorded: virtually no toxicity | > 1000 µM
